In patent US12077531B2, “Imidazopyridinone compound” (KISSEI PHARMACEUTICAL CO., LTD., priority 2018, dated 2024):
Read-outs that look alike come from different tables or passages of the source.

How the values were obtained:
[1] = system: TNBS induced colitis model rat; assay: Therapeutic effect in TNBS induced colitis model rat (intestinal permeability of FITC); format: in vivo; conditions: po, 72 h, 3 mg/kg orally once a day for 3 days, SD rats, mean, test compounds-free group 0, TNBS-untreated group 100, read-out: Inhibition (%): suppressive rate on the intestinal permeability
Experimental: Test Example 2 Therapeutic Effect in Colitis Model
(1) TNBS Induced Colitis Model Rat
SD rats: 8-weeks-old male SLC (Japan SLC) were used. Under pentobarbital anesthesia, 300 μL of TNBS (28 mg/mL) prepared by 50% ethanol was administered at a point 8 cm from anus in large intestine to cause inflammation. To the solvent-treated group was administrated 300 μL of 50% ethanol. Animals were fasted for 48 hours prior to administration of TNBS. Test compounds (3 mg/kg) prepared by 0.05% methylcellulose solution were orally administered once a day from next day, and it was administered for a total of 3 days. After administering for 3 days, 50 mg/kg FITC was orally administered at 4 hours after administration. Blood samples were collected from jugular vein under isoflurane anesthesia after 4 hours. The serum was centrifuged and fluorescence intensity was detected by PHERAstar FSX (BMG Labtech) to measure the concentration of FITC permeating into circulating blood through the mesentery. The suppressive rate on the intestinal permeability of test compounds was calculated based on the value of test compounds-free group as 0 and the value of TNBS-untreated group as 100.

human PHD2184-418 = human PHD2184-418 (Homo sapiens (Human), UniProt Q9GZT9); assay: PHD2 inhibitory test (fluorescence polarization, binding between PHD2 and HIF-1α); conditions: human PHD2184-418, FITC-labeled HIF-1α556-574, 2 μM 2-oxoglutarate, 37° C. 60 minutes
Chain of human PHD2184-418 (Q9GZT9 184-418): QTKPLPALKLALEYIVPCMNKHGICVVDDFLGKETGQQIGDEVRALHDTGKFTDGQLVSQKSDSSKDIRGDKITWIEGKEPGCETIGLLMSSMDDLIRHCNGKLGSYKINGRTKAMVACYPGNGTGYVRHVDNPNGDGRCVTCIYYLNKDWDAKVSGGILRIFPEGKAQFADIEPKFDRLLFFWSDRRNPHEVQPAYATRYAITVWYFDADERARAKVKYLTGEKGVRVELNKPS
Outline: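 N-His-tagged human PHD2 (residues 184–418, E. coli-expressed) was preincubated with compound, then FITC-Ahx-HIF-1α556-574 peptide was added in pH 7.4 HEPES buffer with 10 μM MnCl2 and 2 μM 2-oxoglutarate. After 60 min at 37 °C, fluorescence polarization (ex 470/em 530 nm) was read. Inhibition was calculated against compound-free wells.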

[2] = Rat PK study: concentration of compounds in large intestine tissue and plasma; format: in vivo; conditions: male, SD, 3 mg/kg oral; for Kp at 8 h: large intestine tissue / plasma, read-out: C/P: ratio of the above Colon and Plasma; for AUC / Cmax: non-fasted; for AUC: read-out: AUC: area under the plasma test compound concentration-time curve (converted); for Cmax: read-out: Cmax: maximum plasma concentration of test compounds in the case of oral administration
Experimental: Test Example 3 Concentration of Compounds in Large Intestine Tissue
Test compounds (3 mg/kg/5 mL) prepared by 0.05% methylcellulose were orally administered to non-fasted rats (SD, 8-weeks-old, male, Japan SLC). Blood samples were collected from jugular vein at 0.25, 0.5, 1, 2, 4, 6 and 8 hours after the administration. Laparotomy was performed under isoflurane anesthesia and large intestine was isolated. Collected distal large intestine (about 5 cm) was cut open, and then the large intestine was washed with saline on a dish. After washing, the large intestine was minced by a small scissors. About 150 mg thereof was moved to tube. To the tube was added 100 μL of saline, the mixture was homogenized using shake master (1000 rpm×30 minutes). Samples were prepared by the addition with quadruple volume of saline as final volume. The concentrations of the test compound in large intestine tissue and plasma were measured through a quantitative analysis using liquid chromatography-mass spectrometry (LC/MS).

[3] = large intestine tissue (distal large intestine), read-out: Colon: concentrations of the test compound in large intestine tissue after 8 hours
[4] = plasma, read-out: Plasma: plasma test compound concentration after 8 hours

Row | IC50 (human PHD2184-418) | concentration at 8 h [2, 3] | Kp at 8 h [2] | concentration at 8 h [2, 4] | AUC ([2]; plasma) | Cmax ([2]; plasma) | Compound | inhibition in vivo at 3 mg/kg [1]
1 | 150 nM | 174 ng/g | > 174 | < 1 ng/mL | 5.23 ng·h/mL | 3 ng/mL | O=C(O)c1ccc(-c2ccc(-n3c(=O)n([C@H]4CCN(Cc5cc(C(=O)O)ccn5)C4)c4ncccc43)cn2)cc1 [Example 46, (S)-2-((3-(1-(6-(4-Carboxyphenyl)pyridin-3-yl)-2-oxo-1,2-dihydro-3H-imidazo[4,5-b]pyridin-3-yl)pyrrolidin-1-yl)methyl)isonicotinic acid] | 63%
2 | 410 nM | 317 ng/g | 18 | 18 ng/mL | 334 ng·h/mL | 60 ng/mL | Cn1ccnc1CN1CC[C@H](n2c(=O)n(-c3ccc(-c4ccc(C(=O)O)cc4)cc3)c3cccnc32)C1 [Example 47, (S)-4′-(3-(1-((1-Methyl-1H-imidazol-2-yl)methyl)pyrrolidin-3-yl)-2-oxo-2,3-dihydro-1H-imidazo[4,5-b]pyridin-1-yl)-[1,1′-biphenyl]-4-carboxylic acid] | 85%
3 | 120 nM | 201 ng/g | > 201 | < 1 ng/mL | 15 ng·h/mL | 4 ng/mL | Cn1c(C(=O)O)cnc1CN1CC[C@H](n2c(=O)n(-c3ccc(-c4ccc(C(=O)O)cc4)cc3O)c3cccnc32)C1 [Example 49, (S)-2-((3-(1-(4′-Carboxy-3-hydroxy-[1,1′-biphenyl]-4-yl)-2-oxo-1,2-dihydro-3H-imidazo[4,5-b]pyridin-3-yl)pyrrolidin-1-yl)methyl)-1-methyl-1H-imidazole-5-carboxylic acid] | 82%
4 | 140 nM | 54 ng/g | > 54 | < 1 ng/mL | 21.5 ng·h/mL | 5 ng/mL | Cn1c(C(=O)O)cnc1CN1CC[C@H](n2c(=O)n(-c3ccc(-c4ccc(C(=O)O)cc4)cc3)c3cccnc32)C1 [Example 83, (S)-2-((3-(1-(4′-Carboxy-[1,1′-biphenyl]-4-yl)-2-oxo-1,2-dihydro-3H-imidazo[4,5-b]pyridin-3-yl)pyrrolidin-1-yl)methyl)-1-methyl-1H-imidazole-5-carboxylic acid] | 85%
5 | 150 nM | 99 ng/g | > 99 | < 1 ng/mL | 1.27 ng·h/mL | 1 ng/mL | Cn1c(C(=O)O)cnc1CN1CC[C@H](n2c(=O)n(-c3ccc(-c4ccc(C(=O)O)cc4)c(O)c3)c3cccnc32)C1 [Example 84, (S)-2-((3-(1-(4′-Carboxy-2-hydroxy-[1,1′-biphenyl]-4-yl)-2-oxo-1,2-dihydro-3H-imidazo[4,5-b]pyridin-3-yl)pyrrolidin-1-yl)methyl)-1-methyl-1H-imidazole-5-carboxylic acid] | 117%
